Series [1] deals with SCG neurons. Nature of the series: In vitro protection of SCG neurons from Taxol killing. Conditions: Rattus norvegicus, Neuron; Taxol 50 ng/mL, 48 hours, MTS viability; read-out: IC50, rescue from Taxol killing of SCG neurons. Type of series: cell-based, Sprague Dawley rats. An excerpt:
Taxol™ is regularly used in the treatment of breast and other cancers. Taxol™ binds to the cyto-skeletal protein tubulin, thereby inhibiting normal microtubular […] and inducing cellular apoptosis. Despite its potency as an anti-tumour agent, Taxol™ is also toxic to neurons, inducing dose limiting peripheral neuropathies. The addition of Taxol™ to cultured SCG neurons induces the degradation or loss of upwards of 80% of the neurons. The addition of selected compounds of Formula I to the cellular media, concurrently with Taxol™, protects upwards of 100% of the neurons, at drug concentrations ranging from 3 to 50 μM (see Example 63).
In Vitro Protection of SCG neurons from Taxol killing. SCG neurons were isolated from day 1 neonatal Sprague Dawley rats, plated at a cell density of 10,000 cells/well, and incubated in Biowhittaker Ultraculture containing 1% Penstrep, 1% L-glutamine, 0.7% ARAC, 3% rat serum, and NGF (50 ng/mL, Calomone Labs) at 37° C., under a 5% CO2 atmosphere. After 5 days the cells were treated with compound and Taxol™ (50 ng/mL). Viability of neurons was assessed 48 hours later using MTS (Promega) staining. Table 4 summarizes selected IC50 values from compounds tested using this protocol. Also, see FIG. 1 for compound protection against Taxol killing.

A short description of series [2]: Conversion of esters and carbamates to phenol in microsomal fractions. Type of series: in vitro ADME. Conditions: incubated with microsomal fractions, standard conditions. Here is the method:
The phenolic moiety observed in many of the compounds represented by Formula I may be converted to esters, carbamates, thiocarbamates and sulfonates. The Applicant has shown that both esters and carbamates are rapidly converted to the corresponding phenol when incubated in the presence of microsomal fractions using standard conditions (Cresteil, T., et al. Am. Soc. Pharm. Exper. Therapeutics, 2002, 30, 438-445). These microsomal fractions contain various active esterase and P450 oxidative enzymes. […] Esters and carbamates of this type allow for the preparation of various novel pro-drugs which display increased water solubility, stability, formulation, and pharmacokinetic profiles. The carbamates disclosed in U.S. Pat. No. 4,349,685 are limited to lower alkyl, substituted aryl, haloalkyl, carbalkoxyalkene or an alkyl carbonyloxyalkylene group. The preferred embodiments of this disclosure include esters and carbamates represented by Formula I, where the carbamate or ester moiety includes substituted lower alkyl, heteroaryl, substituted heteroaryl moieties which contain a basic nitrogen, capable of increasing the water solubility of said compound via an acid/base salt (typified by compounds 55 and 61).

Series [3] has as its system SCG neurons. Nature of the series: Protection of SCG neurons from anti-NGF killing. Format: cell-based, Sprague Dawley rats. Conditions: Rattus norvegicus, Neuron; anti-NGF antibody, 48 hours, Alamar Blue viability; read-out: IC50, rescue from anti-NGF killing of cultured SCG neurons. On the procedure:
Neurotrophins are critical to the growth, development, and survival of small fiber neurons of the PNS. SCG neurons are neurons of the PNS that undergo apoptosis upon NGF withdrawal. In a typical experiment SCG neurons are cultured in the presence of NGF, which induces survival and neurite out-growth. After 5 days the NGF is removed by either the addition of anti-NGF polyclonal antibody (Sigma) or by repeated washings (4 times) with NGF free media, resulting in the apoptosis of up to 90% of the neurons after 48 hours, as measured by MTS staining. The addition of selected compounds of Formula I to the final cellular media provides upwards of 100% protection, at drug concentrations ranging from 10 to 50 μM (see Example 62).
Protection of SCG neurons from anti-NGF killing. SCG neurons were isolated from day 1 neonatal Sprague Dawley rats, plated at a cell density of 5,000 cells/well, and incubated in Biowhittaker Ultraculture containing 1% Penstrep, 1% L-glutamine, 0.7% ARAC, 3% rat serum, and NGF (50 ng/mL, Calomone Labs), at 37° C., under a 5% CO2 atmosphere. After 4 days the cells were treated with anti-NGF antibody (Sigma). At this time compound was added and the cells were maintained serum and NGF free for 48 hours, at which time viability of the neurons was assessed using Alamar Blue (Medicorp) staining. Table 3 summarizes selected IC50 values from compounds tested using this protocol.
(In general: The colour change of resazurin is a common sign of viable cells or microbes.)

In the case of `O=C(Oc1cc(-c2ccc(-c3ccccc3)cc2)c2oc(=O)sc2c1)c1cccnc1` [Compound 55, 5-(3-pyridylcarbonyloxy)-7-biphenylbenzo[1,3]oxathiol-2-one], the figures for the IC50 in the series with SCG neurons [1] and in the series on SCG neurons [3] were 2 µM and 7 µM, respectively. Moreover, in series [2], the “conversion to parent phenol in microsomal fractions” value is on record as “rapidly converted to their parent phenols”.

These data come from US20060234987A1, “Neuroprotective benzo 1 3 oxathiol 2 ones” (priority 2003, published 2006).
